Values quoted from earlier work in US20110015182A1, “NOVEL CARBAMATE AMINO ACID AND PEPTIDE PRODRUGS OF OPIOIDS AND USES THEREOF” (priority 2009, published 2011).

Legend:
[1] = concurrent oral administration with various opioids; Linn and Steinbrook (2007)
[2] = Norbury et al. (1983)

Row | Compound | adverse GI effects of opioids (constipation, nausea and vomiting) [1] | range of observed oral bioavailabilities [2]
1 | C[C@H]1CN(C[C@H](Cc2ccccc2)C(=O)NCC(=O)O)CC[C@@]1(C)c1cccc(O)c1 [alvimopan] | markedly reduce | 
2 | CCC1(c2cccc(O)c2)CCCCN(C)C1 (centres unmarked) [meptazinol] |  | 2-20%
